Earlier results, collected in patent US20030108495A1, “Cosmetic compositions containing 2,2-dihydroxymethy1-1,3-dioxolanes” (priority 2001, published 2003).

System: moisturized human skin
Conditions: cosmetic composition applied to moisturized human skin

## O=C(CO)CO [DHA, 1,3-dihydroxyacetone]
  time after initial application until tan appearance (brown-colored melanoidins): approximately five
